Results from PubChem BioAssay AID256 (DTP/NCI, 2004).
Several values for one entry are separate records, joined by “and”; a condition that tells them apart may be missing. Identical values can stand only once. Inconclusive results and toxic doses are left out.

System: CD2F1 mice, L1210 leukemia ip, survival T/C
Experiment: NCI In Vivo Anticancer Drug Screen. Data for tumor model L1210 Leukemia (intraperitoneal) in CD2F1 (CDF1) mice
Conditions: higher = longer survival
Procedure, shortened: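 Ratio T/C, where T is the treated-group value and C the vehicle-dosed control value, from mice implanted with a transplantable tumor.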

[1] = endpoint: mean survival time, dose: 100.0 mg/kg/injection, schedule: Q01DX009 (ip), vehicle: saline with Tween-80
[2] = endpoint: mean survival time, dose: 100.0 mg/kg/injection, schedule: Q04DX003 (ip), vehicle: saline with Tween-80
[3] = endpoint: mean survival time, dose: 200.0 mg/kg/injection, schedule: Q01DX009 (ip), vehicle: saline with Tween-80
[4] = endpoint: mean survival time, dose: 200.0 mg/kg/injection, schedule: Q04DX003 (ip), vehicle: saline with Tween-80
[5] = endpoint: mean survival time, dose: 400.0 mg/kg/injection, schedule: Q01DX009 (ip), vehicle: saline with Tween-80
[6] = endpoint: mean survival time, dose: 400.0 mg/kg/injection, schedule: Q04DX003 (ip), vehicle: saline with Tween-80
[7] = endpoint: mean survival time, dose: 25.0 mg/kg/injection, schedule: Q01DX009 (ip), vehicle: saline with Tween-80
[8] = endpoint: mean survival time, dose: 50.0 mg/kg/injection, schedule: Q01DX009 (ip), vehicle: saline with Tween-80

In the case of `N/C(=N\O)c1cn(C2OC(CO)C(O)C2O)c2ncncc12` (stereo not drawn), the T/C (endpoint: mean survival time, dose: 25.0 mg/kg/injection, schedule: Q01DX009 (ip), vehicle: saline) is reported as 159 % of control, the T/C (endpoint: mean survival time, dose: 50.0 mg/kg/injection, schedule: Q01DX009 (ip), vehicle: saline) is reported as 168 % of control and the T/C (endpoint: mean survival time, dose: 100.0 mg/kg/injection, schedule: Q01DX009 (ip), vehicle: saline) is reported as 102 % of control.
For `CCOC(=S)SCCSC`, the T/C (endpoint: mean survival time, dose: 100.0 mg/kg/injection, schedule: Q01DX001 (ip), vehicle: saline) was 103 % of control and the T/C (endpoint: mean survival time, dose: 200.0 mg/kg/injection, schedule: Q01DX001 (ip), vehicle: saline) was 98 % of control.
In the case of `O=C1c2ccccc2C(=O)c2ccccc21`, the T/C [1] is reported as 93 % of control, the T/C [2] is reported as 87 % of control and the T/C [3] is reported as 100 % of control. For the same molecule, the T/C [4] was 93 % of control, the T/C [5] was 94 % of control and the T/C [6] was 88 % of control.
`CC(=O)NC1C(OC(C)=O)OC(COC(c2ccccc2)(c2ccccc2)c2ccccc2)C(OS(C)(=O)=O)C1OC(C)=O` (stereo not drawn) was tested, and the T/C (endpoint: mean survival time, dose: 50.0 mg/kg/injection, schedule: Q04DX003 (ip), vehicle: saline with Tween-80) was 95 % of control, the T/C [2] was 103 % of control and the T/C [4] was 101 % of control. The T/C [6] was 89 % of control.
In the case of `N#Cc1cccc[n+]1Cc1ccc([N+](=O)[O-])cc1`, the T/C [7] is reported as 108 % of control and the T/C [8] is reported as 101 % of control.
In the case of `O=C(Nc1ccc(Cl)c(Cl)c1)Nc1cc(Cl)ccc1Sc1ccc(Cl)cc1S(=O)(=O)O`, the T/C [7] is reported as 100 % of control, the T/C [8] is reported as 100 % of control and the T/C [1] is reported as 105 % of control. The T/C [2] was 101 % of control.
For `O=Cc1cc2c3c(c1)CCCN3CCC2`, the T/C [2] was 97 % of control, the T/C [4] was 102 % of control and the T/C [6] was 94 % of control.
With `CSC(I)(N(C)C)N(C)C` the T/C (endpoint: mean survival time, dose: 75.0 mg/kg/injection, schedule: Q01DX001 (ip), vehicle: saline) was 98 % of control, the T/C (endpoint: mean survival time, dose: 150.0 mg/kg/injection, schedule: Q01DX001 (ip), vehicle: saline) was 101 % of control and the T/C (endpoint: mean survival time, dose: 300.0 mg/kg/injection, schedule: Q01DX001 (ip), vehicle: saline) was 98 % of control.
In the case of `Cc1c(Br)c(=O)[nH]c2ccccc12`, the T/C [1] is reported as 96 % of control, the T/C [2] is reported as 101 % of control and the T/C [3] is reported as 96 % of control. For the same molecule, the T/C [4] was 98 % of control, the T/C [5] was 94 % of control and the T/C [6] was 101 % of control.
With `COc1cccc(CCNC(=O)CC#N)c1` the T/C [1] was 97 % of control, the T/C [3] was 98 % of control and the T/C [5] was 101 % of control.
In the case of `COc1nc(NC2OC(CO)C(O)C(O)C2O)cc(=O)[nH]1` (stereo not drawn), the T/C (endpoint: median survival time, dose: 12.5 mg/kg/injection, schedule: Q01DX005 (ip), vehicle: saline) is reported as 105 % of control, the T/C (endpoint: median survival time, dose: 25.0 mg/kg/injection, schedule: Q01DX005 (ip), vehicle: saline) is reported as 97 % of control and the T/C (endpoint: median survival time, dose: 50.0 mg/kg/injection, schedule: Q01DX005 (ip), vehicle: saline) is reported as 100 % of control. For the same molecule, the T/C (endpoint: median survival time, dose: 100.0 mg/kg/injection, schedule: Q01DX005 (ip), vehicle: saline) was 100 % of control and the T/C (endpoint: median survival time, dose: 200.0 mg/kg/injection, schedule: Q01DX005 (ip), vehicle: saline) was 102 % of control.
For `NC(=O)c1nc(C2OC(CO)C(O)C2O)cs1` (stereo not drawn), the T/C (endpoint: median survival time, dose: 50.0 mg/kg/injection, schedule: Q01DX005 (ip), vehicle: water) was 100 % of control, the T/C (endpoint: median survival time, dose: 100.0 mg/kg/injection, schedule: Q01DX005 (ip), vehicle: water) was 102 % of control and the T/C (endpoint: median survival time, dose: 200.0 mg/kg/injection, schedule: Q01DX005 (ip), vehicle: water) was 98 % of control. For the same molecule, the T/C (endpoint: median survival time, dose: 400.0 mg/kg/injection, schedule: Q01DX005 (ip), vehicle: water) was 101 % of control.
With `O=C(NN=C1CCCCC1)c1ccccc1` the T/C [1] was 100 % of control, the T/C [2] was 97 % of control and the T/C [3] was 100 % of control. The T/C [4] was 100 % of control and the T/C [6] was 101 % of control.
With `CCOC(=O)Nc1cc(NC(C)/C(=N/O)c2ccccc2)c([N+](=O)[O-])c(N)n1` (stereo not drawn) the T/C (endpoint: median survival time, dose: 25.0 mg/kg/injection, schedule: Q01DX005 (ip), vehicle: Klucel (hydroxypropylcellulose) (HPC)) was 119 % of control and 98 % of control, the T/C (endpoint: median survival time, dose: 30.0 mg/kg/injection, schedule: Q01DX005 (ip), vehicle: Klucel (hydroxypropylcellulose) (HPC)) was 98 % of control and the T/C (endpoint: median survival time, dose: 40.0 mg/kg/injection, schedule: Q01DX005 (ip), vehicle: Klucel (hydroxypropylcellulose) (HPC)) was 119 % of control. The T/C (endpoint: median survival time, dose: 60.0 mg/kg/injection, schedule: Q01DX005 (ip), vehicle: Klucel (hydroxypropylcellulose) (HPC)) was 110 % of control, the T/C (endpoint: median survival time, dose: 120.0 mg/kg/injection, schedule: Q01DX005 (ip), vehicle: Klucel (hydroxypropylcellulose) (HPC)) was 122 % of control and the T/C (endpoint: median survival time, dose: 200.0 mg/kg/injection, schedule: Q01DX005 (ip), vehicle: Klucel (hydroxypropylcellulose) (HPC)) was 188 % of control.
`CC(C)(C)OC(=O)N/N=C1\CC2CCC1C2` (stereo not drawn) was tested, and the T/C [7] was 107 % of control.
`OC(c1ccccc1)C1CCN(Cc2ccccc2)CC1` (stereo not drawn) was tested, and the T/C [2] was 96 % of control.
